Measurements: PubChem BioAssay AID1963430 (Molecular Pharmacology Branch, DTP, NCI, 2024)
Where “and” joins values, the source holds several entries; their conditions need not be identical. Equal entries are not always repeated.

Tested on: 521955-158-R2-J5-PDC complex spheroid growth, % test/control
Assay: Anticancer human tumor 521955-158-R2-J5-PDC patient-derived pancreatic carcinoma cell line growth inhibition [Asc]
Conditions: for IC50: curve of first compound; for viability, T/C: stronger effect = lower value
Method: Multicellular complex tumor spheroid response to apoptosis pathway targeting inhibitors Alrizomadlin, Pelcitoclax, and Dasminapant in combination with a variety of drugs and investigational agents in selected tumor cell lines
The MDM2 inhibitor alrizomadlin, the Bcl-2/Bcl-xL inhibitor pelcitoclax, and the IAPs inhibitor dasminapant were evaluated both individually and in combination with standard of care and investigational anticancer small molecules within a complex spheroid model of solid tumors. . Complex spheroids include a stromal component modeled by human endothelial cells (HUVEC) and fibroblasts modeled by human mesenchymal stem cells (MSCs). The concentration ranges selected for each drug and investigational agent were based upon clinically achievable concentrations if the clinical Cmax of the agent was known.
Compounds. The drugs and investigational agents: alrizomadlin (APG-115; NSC831270), pelcitoclax (APG-1252; NSC835773), dasminapant (APG-1387;NSC834197), TAK-243 (NSC785004), copanlisib (NSC809693), olaparib (NSC753686), talazoparib (NSC767125), cobimetinib (NSC 768068), eltanexor (KPT-8602, NSC 794443), abemaciclib (NSC 768073), sotorasib (NSC818433), adagrasib (NSC 831453), MRTX-1133 (NSC 836407), Iadademestat (ORY1001, NSC 806812), and RMC-4630 (NSC839698), were obtained from the NCI Developmental Therapeutics Program Chemical Repository. The FDA-approved anticancer drug set is available from the Developmental Therapeutics Program at https://dtp.cancer.gov/organization/dscb/obtaining/available plates.htm. […] The stock solutions were prepared in dimethyl sulfoxide (DMSO, Sigma-Aldrich, St. Louis, MO, cat. D2650) at 800-fold the tested concentration and stored at -70 degrees C prior to their use. All drugs and investigational agents were tested over a range starting from a high concentration at or near the clinical Cmax and decreasing in half-log increments. If the clinical Cmax for an agent had not been determined, the highest concentration tested was 10 microM.
The patient-derived cancer (PDC) cell lines include five colon adenocarcinomas: 186277-243-T-J2-PDC, 616215-338-R-J1-PDC, 439559-082-T-J2-PDC, 463943-066-T-J2-PDC, and 519858-162-T-J1-PDC; three pancreatic carcinomas: 323965-272-R-J2-PDC, 521955-158-R6-J3-PDC, and 521955-158-R2-J5-PDC; two uterine sarcomas: 327498-152-R-J2-PDC and 993429-296-R-J1-PDC; two rhabdomyosarcomas: 755483-174-R-J1-PDC and 772245-204-R-J1-PDC; two soft tissue sarcomas: 126254-015-R-J1-PDC and 494315-158-R-J1-PDC; two malignant fibrous histiocytomas: 317291-083-R-J1-PDC and 596521-263-R-J1-PDC; two breast carcinomas: 171881-019-R-J1-PDC and 885512-296-R-J2-PDC; and one ovarian carcinoma: 6556581-035-R-J-PDC were obtained from the NCI PDMR, (https://pdmr.cancer.gov). The established cell lines HSSY-2 synovial sarcoma (RRID:CVCL 8719), SYO-1 synovial sarcoma (RRID:CVCL_7146), MPNST malignant peripheral neural sheath tumor were obtained from the Sloan Kettering Institute. The following established cell lines were purchased from the American Type Culture Collection (ATCC, Manassas, VA), Sor the received from the NCI repository:, PANC-1 pancreatic carcinoma (CRL-1469, RRID:CVCL_0480), OVCAR-5 ovarian carcinoma (RRID:CVCL_1628), OVCAR-8 ovarian carcinoma (RRID:CVCL_1629), , MCF-7 breast carcinoma (CRL-12584, RRID:CVCL_0031), MDA-MB-231 breast carcinoma (CRL-12532, RRID:CVCL_0062), NCI-H1876 small cell lung carcinoma (CRL-5902, RRID:CVCL_1503), NCI-H510A small cell lung carcinoma (HTB-184, RRID:CVCL_1565), NCI-H1417 (CRL-5869, RRID:CVCL_1469), and NCI-H196 small cell lung carcinoma (CRL-5823, RRID:CVCL_1509). Dr. Peter Houghton (Greehey Children's Cancer Research Institute, University of Texas Health Science Center, San Antonio, TX) provided Rh-18 rhabdomyosarcoma (RRID:CVCL_1659). Pooled donor human umbilical vein endothelial cells (HUVEC, Lonza, cat. CC-2519) and human mesenchymal stem cells (hMSC, Lonza, cat. PT-2501) were purchased from Lonza (Walkersville, MD).
Cell Culture. […]
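Further: spheroids exposed to agents for 7 days before readout.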
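Wherever viability, T/C is given: 100% = DMSO vehicle control viability.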

Compound: Cn1ncnc1[C@H]1c2n[nH]c(=O)c3cc(F)cc(c23)N[C@@H]1c1ccc(F)cc1 + Cc1c(S(C)(=O)=O)c(-c2cc(F)cc(N3CCN(c4ccc(NS(=O)(=O)c5ccc(NC(CCN6CCC(C(=O)OCCCP(=O)(O)O)CC6)CSc6ccccc6)c(S(=O)(=O)C(F)(F)F)c5)cc4)CC3)c2)c(-c2ccc(Cl)cc2)n1C(C)C
- IC50 (second compound 0.1 µM): > 100 nM
- IC50 (second compound 0.316 µM): > 100 nM
- IC50 (second compound 1 µM): 53.1 nM
- IC50 (second compound 3.16 µM): 29 nM
- IC50 (second compound 10 µM): > 100 nM
- viability, T/C (second compound 0.1 µM, first compound 0.000316 µM): 93.4%
- viability, T/C (second compound 0.1 µM, first compound 0.001 µM): 80.7%
- viability, T/C (second compound 0.1 µM, first compound 0.00316 µM): 61.1%
- viability, T/C (second compound 0.1 µM, first compound 0.01 µM): 67.2%
- viability, T/C (second compound 0.1 µM, first compound 0.0316 µM): 53.3%
- viability, T/C (second compound 0.1 µM, first compound 0.1 µM): 53.1%
- viability, T/C (second compound 0.316 µM, first compound 0.000316 µM): 99.6%
- viability, T/C (second compound 0.316 µM, first compound 0.001 µM): 84.3%
- viability, T/C (second compound 0.316 µM, first compound 0.00316 µM): 74.6%
- viability, T/C (second compound 0.316 µM, first compound 0.01 µM): 81.4%
- viability, T/C (second compound 0.316 µM, first compound 0.0316 µM): 65.1%
- viability, T/C (second compound 0.316 µM, first compound 0.1 µM): 68.8%
- viability, T/C (second compound 1 µM, first compound 0.000316 µM): 151%
- viability, T/C (second compound 1 µM, first compound 0.001 µM): 85%
- viability, T/C (second compound 1 µM, first compound 0.00316 µM): 102%
- viability, T/C (second compound 1 µM, first compound 0.01 µM): 55.1%
- viability, T/C (second compound 1 µM, first compound 0.0316 µM): 54.8%
- viability, T/C (second compound 1 µM, first compound 0.1 µM): 56.5%
- viability, T/C (second compound 3.16 µM, first compound 0.000316 µM): 78.3%
- viability, T/C (second compound 3.16 µM, first compound 0.001 µM): 105%
- viability, T/C (second compound 3.16 µM, first compound 0.00316 µM): 82.3%
- viability, T/C (second compound 3.16 µM, first compound 0.01 µM): 70.6%
- viability, T/C (second compound 3.16 µM, first compound 0.0316 µM): 39.8%
- viability, T/C (second compound 3.16 µM, first compound 0.1 µM): 56.8%
- viability, T/C (second compound 10 µM, first compound 0.000316 µM): 241%
- viability, T/C (second compound 10 µM, first compound 0.001 µM): 216%
- viability, T/C (second compound 10 µM, first compound 0.00316 µM): 201%
- viability, T/C (second compound 10 µM, first compound 0.01 µM): 173%
- viability, T/C (second compound 10 µM, first compound 0.0316 µM): 236%
- viability, T/C (second compound 10 µM, first compound 0.1 µM): 164%

Compound: Cc1nc(N2CCC3(CC2)COC(C)C3N)c(CO)nc1Sc1ccnc(N)c1Cl (stereo unspecified)
- viability, T/C (compound 0.00949 µM): 70.6% and 72.1% and 91.2%
- viability, T/C (compound 0.03 µM): 68.2% and 54.1% and 87.1%
- viability, T/C (compound 0.0949 µM): 59.4% and 48.2% and 62.4%
- viability, T/C (compound 0.3 µM): 48.2% (2×) and 65.5%
- viability, T/C (compound 0.949 µM): 55.2% and 53.1% and 52.7%
- viability, T/C (compound 3 µM): 51.9% and 43.2% and 57.4%

Compound: CCN1CCN(Cc2ccc(Nc3ncc(F)c(-c4cc(F)c5nc(C)n(C(C)C)c5c4)n3)nc2)CC1 + CCN1C(C(=O)NC23CCC(C(=O)O)(CC2)CC3)C(c2cccc(Cl)c2F)C2(C(=O)Nc3cc(Cl)ccc32)C12CCCCC2
- IC50 (second compound 0.03 µM): > 1000 nM
- IC50 (second compound 0.0949 µM): > 1000 nM
- IC50 (second compound 0.3 µM): > 1000 nM
- IC50 (second compound 0.949 µM): > 1000 nM
- IC50 (second compound 3 µM): > 1000 nM
- viability, T/C (second compound 0.03 µM, first compound 0.00316 µM): 87.5%
- viability, T/C (second compound 0.03 µM, first compound 0.01 µM): 88.8%
- viability, T/C (second compound 0.03 µM, first compound 0.0316 µM): 57.3%
- viability, T/C (second compound 0.03 µM, first compound 0.1 µM): 77.4%
- viability, T/C (second compound 0.03 µM, first compound 0.316 µM): 72.4%
- viability, T/C (second compound 0.03 µM, first compound 1 µM): 89.4%
- viability, T/C (second compound 0.0949 µM, first compound 0.00316 µM): 101%
- viability, T/C (second compound 0.0949 µM, first compound 0.01 µM): 79.8%
- viability, T/C (second compound 0.0949 µM, first compound 0.0316 µM): 62.8%
- viability, T/C (second compound 0.0949 µM, first compound 0.1 µM): 56.3%
- viability, T/C (second compound 0.0949 µM, first compound 0.316 µM): 73.2%
- viability, T/C (second compound 0.0949 µM, first compound 1 µM): 105%
- viability, T/C (second compound 0.3 µM, first compound 0.00316 µM): 106%
- viability, T/C (second compound 0.3 µM, first compound 0.01 µM): 99.1%
- viability, T/C (second compound 0.3 µM, first compound 0.0316 µM): 65.6%
- viability, T/C (second compound 0.3 µM, first compound 0.1 µM): 60.9%
- viability, T/C (second compound 0.3 µM, first compound 0.316 µM): 83.8%
- viability, T/C (second compound 0.3 µM, first compound 1 µM): 110%
- viability, T/C (second compound 0.949 µM, first compound 0.00316 µM): 119%
- viability, T/C (second compound 0.949 µM, first compound 0.01 µM): 102%
- viability, T/C (second compound 0.949 µM, first compound 0.0316 µM): 107%
- viability, T/C (second compound 0.949 µM, first compound 0.1 µM): 79%
- viability, T/C (second compound 0.949 µM, first compound 0.316 µM): 92.3%
- viability, T/C (second compound 0.949 µM, first compound 1 µM): 98.2%
- viability, T/C (second compound 3 µM, first compound 0.00316 µM): 142%
- viability, T/C (second compound 3 µM, first compound 0.01 µM): 172%
- viability, T/C (second compound 3 µM, first compound 0.0316 µM): 126%
- viability, T/C (second compound 3 µM, first compound 0.1 µM): 89.6%
- viability, T/C (second compound 3 µM, first compound 0.316 µM): 107%
- viability, T/C (second compound 3 µM, first compound 1 µM): 139%
